According to patent US9427437B2, “Hypercholesterolemia and tendinous injuries” (The Trustees of the University of Pennsylvania, priority 2008, dated 2016):

How the values were obtained:
[1] = test system: partial rupture of achilles tendon; assay: Patient case: oral rosuvastatin for a partial rupture of the achilles tendon in a hypercholesterolemic patient; assay type: in vivo, human; conditions: orally 10 mg once daily
Procedure: (§1) A diabetic presents with a partial rupture of their achilles tendon. Their orthopedist orders a standard lipid panel as part of their blood work. The orthopedist finds that the patient is hypercholesterolemic with a total cholesterol of 285 mg/DL. The orthopedist prescribes rosuvastatin to be taken orally at a dose of 10 mg once daily.

[2] = test system: partial tear of the patellar tendon; assay: Patient case: oral atorvastatin for a partial tear of the patellar tendon in a hypercholesterolemic patient; assay type: in vivo, human; conditions: orally 20 mg once daily
Procedure: as §1, with “person” for “diabetic”, “tear” for “rupture”, “the patellar” for “their achilles”, “almost 300” for “285”, “atorvastatin” for “rosuvastatin”, “20” for “10”

| Compound | cholesterol lowering ([1]; diabetic, total cholesterol 285 mg/DL at presentation) | recovery from partial rupture of achilles tendon ([1]; hypercholesterolemic diabetic) | recovery from partial tear of the patellar tendon ([2]; hypercholesterolemic person) | cholesterol lowering ([2]; person, total cholesterol almost 300 mg/DL at presentation) |
| --- | --- | --- | --- | --- |
| CC(C)c1nc(N(C)S(C)(=O)=O)nc(-c2ccc(F)cc2)c1/C=C/[C@@H](O)C[C@@H](O)CC(=O)O [rosuvastatin] | lowering their cholesterol to acceptable levels | markedly improved | – | – |
| CC(C)c1c(C(=O)Nc2ccccc2)c(-c2ccccc2)c(-c2ccc(F)cc2)n1CC[C@@H](O)C[C@@H](O)CC(=O)O [atorvastatin] | – | – | markedly improved | lowering their cholesterol to acceptable levels |
